# According to publication PMC11720353, “Clove Essential Oil as a Source of Antitumoral Compounds Capable of Crossing the Blood–Brain Barrier: A Focus on the Effects of β-Caryophyllene and Eugenol in a Glioblastoma Cell Line” (International Journal of Molecular Sciences, 2024):
# Like-named read-outs stand apart in the source and are kept apart here.
# Legend:
# [1] = test system: HMC3 cells; assay: Quantitative real-time PCR of mRNA levels; type: cell-based, human; settings: 24 h
# Description: (§1) An analysis of the genes involved in angiogenesis, tumor progression and proliferation were performed. In particular, we analyzed the genes involved in the cell cycle and in three different apoptotic pathways: B-cell lymphoma-2 (BCL2), Bcl-2-like protein 1 (BCL2L1), Bcl-2 Associated X-protein (BAX), BCL2 Antagonist/Killer 1 (BAK-1) and Caspase 9 (CASP9) as the key genes of the intrinsic mitochondrial pathway; and Phosphatase and tensin homolog (PTEN), Tumor protein p53 (TP53), Murine double minute 2 (MDM2), Cyclin-dependent kinase 4 (CDK4) and Vascular endothelial growth factor A (VEGFA) mRNA levels were assessed by quantitative real-time PCR (qRT-PCR). HMC3 and U87 cells were seeded with a density of 1 × 10^6 cells per well and incubated for 24 h at 37 °C and 5% CO2. Thereafter, the cells were treated either with EU (200 μM) or BCA (125 μM) alone and in combination (EU 200 μM + BCA 125 μM). Total RNA was extracted using the TripleXtractor solution (GRISP, Lisbon, Portugal) according to the manufacturer's protocol. RNA was converted into cDNA through the […] Synthesis Supermix (GRISP, Lisbon, Portugal). Each optimized reaction was performed using […] SYBR Green Mastermix 2X with […], Lisbon, Portugal) and subjected to the amplification protocol described by the manufacturer, using a melting temperature of 60 °C. The relative gene expression was determined by the 2^-ΔΔCt method and normalized on Glyceraldehyde-3-Phosphate Dehydrogenase (GAPDH), which was the endogenous reference and relative to the untreated cells (control condition).
# [2] = test system: U87 cells; assay: Quantitative real-time PCR of mRNA levels; type: cell-based, human; settings: 24 h
# Description: as §1
# [3] = test system: U87 cells; assay: Clonogenic cell survival assay; type: cell-based, human; settings: EU 200 µM, BCA 125 µM, alone or in combination, 14 days
# Description: An evaluation of the antiproliferative effect via clonogenic assay on the tumoral U87 cells was performed using an adapted protocol from the previously described procedure. Briefly, U87 cells (0.8 × 10^3 cells/well) were seeded into 6-well plates and incubated for 24 h. After the incubation, based on the results obtained from the cell viability assay and synergistic score, the cells were treated either with EO single compounds diluted in ethanol alone (EU 200 µM and BCA 125 µM) or in combination for 14 days with the media being changed every 2/3 days. The cells without treatment were considered the control condition. Following the incubation, the cells were washed with PBS, fixed with paraformaldehyde (PFA) and stained with 0.1% crystal violet solution. The number of colonies was counted by microscopy, and the surviving fraction (SF) was calculated as the mean colonies/number of cells seeded.
# [4] = test system: HMC3 cells; assay: Cell cycle analysis (PI/RNase, flow cytometry); type: cell-based, human; settings: EU 200 µM, BCA 125 µM, alone or in combination, 24 h
# Description: (§2) Analysis of the effect of BCA and/or EU on the cell cycle was assessed with flow cytometry using propidium iodide (PI)/RNase solution, according to the manufacturer’s protocol (Immunostep, Salamanca, Spain), as previously described. HMC3 and U87 cells (30 × 10^4 cells/well) were seeded in triplicate into 6-well plates and incubated for 24 h at 37 °C and 5% CO2. Thereafter, the cells were treated either with EU (200 µM) or BCA (125 µM) alone or in combination (EU 200 µM + BCA 125 µM). After 24 h, the cells were detached and fixed in 70% ethanol for 60 min at 4 °C, washed twice with PBS, and then stained with 500 µL of PI/RNase solution. The results were acquired using CellQuest software and expressed as the calculated percentage of the cell population in each cell cycle phase (G0/G1, S and G2/M) according to the PI intensity.
# [5] = test system: U87 cells; assay: Cell cycle analysis (PI/RNase, flow cytometry); type: cell-based, human; settings: EU 200 µM, 24 h
# Description: as §2
# [6] = test system: HMC3 cells; assay: Inflammatory cytokines in conditioned media (Luminex/BioPlex); type: cell-based, human; settings: EU 200 µM, BCA 125 µM, alone or in combination, 24 h
# Description: (§3) In order to determine the impact of BCA and/or EU on inflammatory cytokines levels, cytokine expression analyses (L-6, IL-4, IL-8 and TNF-α) were performed using a customized detection panel purchased from Bio-techne (Minneapolis, MN, USA). The cells were seeded, in triplicate, into 24-well culture plates (8 × 10^4 cells/well). After 24 h, the medium was replaced and the cells were treated either with the vehicle (ethanol) or with different concentrations of EO single compounds alone (EU: 2 µM, 20 µM, 200 µM; and BCA: 1.25 µM, 12.5 µM, 125 µM) or in combination (EU 2 µM + BCA 1.25 µM; EU 20 µM + BCA 12.5 µM; and EU 200 µM + BCA 125 µM). The final concentration of ethanol in the cell medium was kept lower than 0.1%. The ethanol 0.1%-treated cells were considered the control condition. After the 24 h treatment, supernatants were collected and centrifuged at 4,000× g for 10 min, and the samples were analyzed with the BioPlex 200 instrument (BioRad®, Hercules, CA, USA) following the manufacturer’s protocol.
# [7] = test system: U87 cells; assay: as above; type: cell-based, human; settings: EU 200 µM, BCA 125 µM, alone or in combination, 24 h
# Description: as §3
# [8] = test system: U87 cells; assay: Cell death assay (Annexin V/PI, flow cytometry); type: cell-based, human; settings: EU 200 µM, BCA 125 µM, alone or in combination, 24 h
# Description: (§4) HMC3 and U87 cells were seeded in duplicate into 12-well plates (10 × 10^4 cells/well). After 24 h of incubation at 37 °C and 5% CO2, the medium was replaced, and the cells were treated either with EU (200 µM) or BCA (125 µM), alone and in combination (EU 200 µM + BCA 125 µM). Following the 24 h treatment, the cells were co-stained with AV-APC and PI according to the manufacturer’s protocol (Biolegend, San Diego, CA, USA). Briefly, the cells were resuspended in binding buffer (100 µL) and incubated with AV-APC solution (5 µL) and PI solution (2 µL) for 15 min at room temperature. Then, the cells were diluted in a binding buffer (400 µL). A six-parameter, four-color FACSCalibur flow cytometer (Becton Dickinson, San Jose, CA, USA) was used, and at least 10,000 events were collected by acquisition using CellQuest software (Becton Dickinson, San Jose, CA, USA). The results were analyzed with the Paint-a-Gate software and expressed in percentage (%).
# [9] = cited from earlier work
# [10] = test system: HMC3 cells; assay: Cell death assay (Annexin V/PI, flow cytometry); type: cell-based, human; settings: EU 200 µM, BCA 125 µM, alone or in combination, 24 h
# Description: as §4
# [11] = test system: U87 cells; assay: Metabolic activity (Alamar blue) assay and HSA synergy analysis; type: cell-based, human; settings: EU 2.5, 25, 200 µM or BCA 1.25, 12.5, 125 µM alone, 24-72 h
# Description: To evaluate the cytotoxic/antiproliferative potential of BCA and/or EU, the U87 and HMC3 cells were seeded, in triplicate, into 48-well culture plates (4 × 10^4 cells/well). After 24 h, the medium was replaced, and the cells were treated either with the vehicle (ethanol) or with different concentrations of EO single molecules, diluted in ethanol alone ([…]; BCA: 1.25 µM, µM, 125 µM) or in combination (EU 2 µM and BCA 1.25 µM; EU 20 µM and BCA 12.5 µM; and EU 200 µM and BCA 125 µM) in order to evaluate the possible synergistic effects. The final concentration of ethanol in the cell medium was kept lower than 0.1%. Non-treated cells were considered the control condition. Metabolic activity was evaluated using a modified Alamar blue® assay, as previously described. […] After 2 h of incubation at 5% CO2 and 37 °C, the absorbance was read at 570 and 600 nm in a BioTeck (BioTek Instruments, Inc., Winooski, VT, USA). The absorbance results were obtained using the Gen5 program. The metabolic activity was then calculated by the following equation: Metabolicactivity %=A570−A600 oftreated cells/A570−A600 ofcontrol cells×100 All data were analyzed using the software GraphPad Prism v.9.00 (GraphPad Software, San Diego, CA, USA). All in vitro experiments were performed in triplicate, and the acquired results were expressed as means ± SEM. […]
# [12] = EU 200 µM, BCA 125 µM, alone or in combination
structure (smiles),measurement,setting,value
"C=CCc1ccc(O)c(OC)c1 [EU, 4-allyl-2-methoxyphenol]","PTEN mRNA expression, change vs control",[1]; EU 200 µM or BCA 125 µM,+42.2%
same,"BAK1 mRNA expression, change vs control",[1]; [12],no effect
same,"BAX mRNA expression, change vs control",[1]; [12],−29.7%
same,"BCL2L1 mRNA expression, change vs control",[1]; [12],−34.1%
same,"BCL2 mRNA expression, change vs control",[1]; [12],−61.2%
same,"CASP9 mRNA expression, change vs control",[1]; [12],no effect
same,"CDK4 mRNA levels, change vs control",[1]; [12],no effects
same,"MDM2 mRNA expression, change vs control",[1]; [12],−61.2%
same,"TP53 mRNA expression, change vs control",[1]; [12],no effect
same,"VEGFA mRNA expression, change vs control",[1]; [12],−31.5%
same,"PTEN mRNA expression, change vs control",[2]; EU 200 µM or BCA 125 µM,+86.4%
same,"BAK1 mRNA expression, change vs control",[2]; [12],+32.3%
same,"BAX mRNA expression, change vs control",[2]; [12],+50.3%
same,"BCL2L1 mRNA expression, change vs control",[2]; [12],−42.2%
same,"BCL2 mRNA expression, change vs control",[2]; [12],−45.6%
same,"CASP9 mRNA expression, change vs control",[2]; [12],no effect
same,"MDM2 mRNA expression, change vs control",[2]; [12],no effect
same,"TP53 mRNA expression, change vs control",[2]; [12],+143.6%
same,"VEGFA mRNA expression, change vs control",[2]; [12],no effect
same,"CDK4 mRNA levels, change vs control","[2]; EU 200 µM, BCA 125 µM, alone or in combination, normalized to GAPDH",−49.1%
same,decrease of clonal growth / colony formation with respect to control,[3],−59.5%
same,effect on cell cycle,[4],no effects
same,effect on cell cycle,[5],no significant effect
same,"IL-4 levels, change vs control",[6],−26%
same,"IL-4 levels, change vs control",[7],−31%
same,"IL-6 secretion, change vs control",[7],None of the treatments modulated
same,"IL-8 secretion, change vs control",[7],unaffected
same,"live (viable) cells, change with respect to control",[8],did not affect
same,ability to cross the blood–brain barrier,"[9]; rat, in vivo",high aptitude to cross the blood–brain barrier
same,cell viability,[10],did not affect
same,"reduction in metabolic activity, single compounds",[11],No reduction
C=C(C)[C@H]1CC=C(C)CC1 [limonene],ability to permeate the CNS,[9]; after oral administration,inability to permeate the CNS
O=C/C=C/c1ccccc1 [cinnamaldehyde],ability to permeate the CNS,"[9]; rat, not told, po",inability to permeate the CNS
